Patent US20120004244A1, “Bis Aromatic Compounds for Use as LTC4 Synthase Inhibitors” (BIOLIPOX AB, priority 2009, published 2012)

Biological target: T1, Recombinant human LTC4 synthase (Homo sapiens, UniProt Q16873)
T1 construct: made in house; host or cells: Pichia pastoris ('Piccia pastoralis' [sic])
T1 sequence (Q16873 1-150): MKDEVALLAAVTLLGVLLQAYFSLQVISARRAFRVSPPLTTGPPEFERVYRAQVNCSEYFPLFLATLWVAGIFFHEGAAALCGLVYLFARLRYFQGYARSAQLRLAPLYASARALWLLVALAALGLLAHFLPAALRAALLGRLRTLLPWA
Test: LTC4 synthase in vitro assay (LTA4 to LTC4, HTRF detection)
Assay type: biochemical
Conditions: for inhibition at 10 µM: 5 min, total concentration of title compound in the assay 10 μM
Experimental: In the assay, LTC4 synthase catalyses the reaction where the substrate LTA4 is converted to LTC4. Recombinant human LTC4 synthase is expressed in Piccia pastoralis and the purified enzyme is dissolved in 25 mM tris-buffer pH 7.8 supplemented with 0.1 mM glutathione (GSH) and stored at −80° C. The assay is performed in phosphate buffered saline (PBS) pH 7.4 and 5 mM GSH in 384-well plates.
The following is added chronologically to each well:
1.48 μL LTC4 synthase in PBS with 5 mM GSH. The total protein concentration in this solution is 0.5 μg/mL. 2. 1 μL inhibitor in DMSO (final concentration 10 μM). 3. Incubation of the plate at room temperature for 10 min. 4. 1 μL LTA4 (final concentration 2.5 μM). 5. Incubation of the plate at room temperature for 5 min. 6. 10 μL of the incubation mixture is analysed using homogenous time resolved fluorescent (HTRF) detection.

IC50 [nM] | inhibition at 10 µM [%] | SMILES
242 | – | CON=C(c1ccc(Oc2ccccc2)c(C(=O)O)c1)c1ccc(N(CC2CC2)c2ccc(Cl)cc2)cn1 (mixture of isomers) [Example 13, 5-({5-[(4-Chlorophenyl)(cyclopropylmethyl)amino]-2-pyridyl}(methoxyimino)-methyl)-2-phenoxybenzoic acid]
1110 | – | O=C(O)c1cc(C(=NO)c2ccc(N(CC3CC3)c3ccc(Cl)cc3)cn2)ccc1Oc1ccccc1 (mixture of isomers) [Example 14, 5-({5-[(4-Chlorophenyl)(cyclopropylmethyl)amino]-2-pyridyl}(hydroxyimino)-methyl)-2-phenoxybenzoic acid]
110 | 98 | CN(c1ccc(Cl)cc1)c1ccc(C(=O)c2ccc(Oc3ccccc3)c(C(=O)O)c2)nc1 [1:1, 5-{5-[(4-Chlorophenyl)(methyl)amino]picolinoyl}-2-phenoxybenzoic acid]
104 | 98 | CN(c1ccc(Cl)cc1)c1ccc(C(=O)c2ccc(Oc3ccc(F)c(F)c3)c(C(=O)O)c2)nc1 [1:2, 5-{5-[(4-Chlorophenyl)(methyl)amino]picolinoyl}-2-(3,4-difluorophenoxy)benzoic acid]
124 | 98 | CN(c1ccc(Cl)cc1)c1ccc(C(=O)c2ccc(Oc3cccc(Cl)c3)c(C(=O)O)c2)nc1 [1:3, 2-(3-Chlorophenoxy)-5-{5-[(4-chlorophenyl)(methyl)amino]picolinoyl}benzoic acid]
62 | 100 | O=C(c1ccc(Oc2ccccc2)c(C(=O)O)c1)c1ccc(N(CC2CC2)c2ccc(Cl)cc2)cn1 [1:4, 5-{5-[(4-Chlorophenyl)(cyclopropylmethyl)amino]picolinoyl}-2-phenoxybenzoic acid]
70 | 100 | O=C(c1ccc(Oc2ccccc2)c(C(=O)O)c1)c1ccc(N(CC2CCC2)c2ccc(Cl)cc2)cn1 [1:5, 5-{5-[(4-Chlorophenyl)(cyclobutylmethyl)amino]picolinoyl}-2-phenoxybenzoic acid]
61 | 100 | O=C(c1ccc(Oc2ccccc2)c(C(=O)O)c1)c1ccc(N(CC2CCCC2)c2ccc(Cl)cc2)cn1 [1:6, 5-{5-[(4-Chlorophenyl)(cyclopentylmethyl)amino]picolinoyl}-2-phenoxybenzoic acid]
171 | 99 | CCOCCN(c1ccc(Cl)cc1)c1ccc(C(=O)c2ccc(Oc3ccccc3)c(C(=O)O)c2)nc1 [1:7, 5-{5-[(4-Chlorophenyl)(2-ethoxyethyl)amino]picolinoyl}-2-phenoxybenzoic acid]
88 | 100 | C=CCN(c1ccc(Cl)cc1)c1ccc(C(=O)c2ccc(Oc3ccccc3)c(C(=O)O)c2)nc1 [1:8, 5-{5-[(Allyl)(4-chlorophenyl)amino]picolinoyl}-2-phenoxybenzoic acid]
48 | 99 | C#CCN(c1ccc(Cl)cc1)c1ccc(C(=O)c2ccc(Oc3ccccc3)c(C(=O)O)c2)nc1 [1:9, 5-{5-[(4-Chlorophenyl)(2-propynyl)amino]picolinoyl}-2-phenoxybenzoic acid]
433 | 98 | N#CCCCN(c1ccc(Cl)cc1)c1ccc(C(=O)c2ccc(Oc3ccccc3)c(C(=O)O)c2)nc1 [1:10, 5-{5-[(4-Chlorophenyl)(3-cyanopropyl)amino]picolinoyl}-2-phenoxybenzoic acid]
176 | 99 | CN(c1ccc(C(=O)c2ccc(Oc3ccccc3)c(C(=O)O)c2)nc1)c1cccc(C(F)(F)F)c1 [1:11, 5-{5-[(Methyl)(3-trifluoromethylphenyl)amino]picolinoyl}-2-phenoxybenzoic acid]
247 | 100 | CCN(c1ccc(C(=O)c2ccc(Oc3ccccc3)c(C(=O)O)c2)nc1)c1cccc(C(F)(F)F)c1 [1:12, 5-{5-[(Ethyl)(3-trifluoromethylphenyl)amino]picolinoyl}-2-phenoxybenzoic acid]
290 | 99 | C=CCN(c1ccc(C(F)(F)F)cc1)c1ccc(C(=O)c2ccc(Oc3ccccc3)c(C(=O)O)c2)nc1 [1:13, 5-{5-[(Allyl)(4-trifluoromethylphenyl)amino]picolinoyl}-2-phenoxybenzoic acid]
197 | 100 | O=C(c1ccc(Oc2ccccc2)c(C(=O)O)c1)c1ccc(N(CC2CC2)c2cccc(C(F)(F)F)c2)cn1 [1:14, 5-{5-[(Cyclopropylmethyl)(3-trifluoromethylphenyl)amino]picolinoyl}-2-phenoxybenzoic acid]
465 | 99 | CN(c1ccc(C(F)(F)F)cc1)c1ccc(C(=O)c2ccc(Oc3ccccc3)c(C(=O)O)c2)nc1 [1:15, 5-{5-[(Methyl)(4-trifluoromethylphenyl)amino]picolinoyl}-2-phenoxybenzoic acid]

IC50 [nM] | inhibition at 10 µM [%] | SMILES
387 | 98 | CN(c1ccc(C(=O)c2ccc(Oc3ccccc3)c(C(=O)O)c2)nc1)c1ccc(F)c(F)c1 [1:16, 5-{5-[(3,4-Difluorophenyl)(methyl)amino]picolinoyl}-2-phenoxybenzoic acid]
1310 | 96 | CN(c1ccc(C(C)(C)C)cc1)c1ccc(C(=O)c2ccc(Oc3ccccc3)c(C(=O)O)c2)nc1 [1:17, 5-{5-[(4-tert-Butylphenyl)(methyl)amino]picolinoyl}-2-phenoxybenzoic acid]
141 | 100 | O=C(c1ccc(Oc2ccccc2)c(C(=O)O)c1)c1ccc(N(CC2CC2)c2ccc(C(F)(F)F)cc2)cn1 [1:18, 5-{5-[(Cycloropylmethyl)(4-trifluoromethylphenyl)amino]picolinoyl}-2-phenoxybenzoic acid]
130 | 100 | O=C(c1ccc(Oc2ccccc2)c(C(=O)O)c1)c1ccc(N(CC2CC2)c2ccc(F)c(F)c2)cn1 [1:19, 5-{5-[(Cyclopropylmethyl)(3,4-difluorophenyl)amino]picolinoyl}-2-phenoxybenzoic acid]
549 | 100 | CC(C)(C)c1ccc(N(CC2CC2)c2ccc(C(=O)c3ccc(Oc4ccccc4)c(C(=O)O)c3)nc2)cc1 [1:20, 5-{5-[(4-tert-Butylphenyl)(cyclopropylmethyl)amino]picolinoyl}-2-phenoxybenzoic acid]
295 | 99 | C=CCN(c1ccc(C(=O)c2ccc(Oc3ccccc3)c(C(=O)O)c2)nc1)c1ccc(F)c(F)c1 [1:21, 5-{5-[(Allyl)(3,4-difluorophenyl)amino]picolinoyl}-2-phenoxybenzoic acid]
1240 | 99 | CCN(c1ccc(C(C)(C)C)cc1)c1ccc(C(=O)c2ccc(Oc3ccccc3)c(C(=O)O)c2)nc1 [1:22, 5-{5-[(4-tert-Butylphenyl)(ethyl)amino]picolinoyl}-2-phenoxybenzoic acid]
362 | 100 | CSc1ccccc1Oc1ccc(C(=O)c2ccc(N(C)c3ccc(Cl)cc3)cn2)cc1C(=O)O [1:23, 5-{5-[(4-Chlorophenyl)(methyl)amino]picolinoyl}-2-(2-methylsulfanylphenoxy)benzoic acid]
1140 | 86 | CN(c1ccc(Cl)cc1)c1ccc(C(=O)c2ccc(Oc3cccnc3)c(C(=O)O)c2)nc1 [1:24, 5-{5-[(4-Chlorophenyl)(methyl)amino]picolinoyl}-2-(3-pyridyloxy)benzoic acid]
94 | – | COc1ccc(Oc2ccc(C(=O)c3ccc(N(CC4CC4)c4ccc(Cl)cc4)cn3)cc2C(=O)O)cc1 [1:25, 5-{5-[(4-Chlorophenyl)(cyclopropylmethyl)amino]picolinoyl}-2-(4-methoxyphenoxy)benzoic acid]
72 | – | O=C(c1ccc(Oc2ccc(Cl)c(Cl)c2)c(C(=O)O)c1)c1ccc(N(CC2CC2)c2ccc(Cl)cc2)cn1 [1:26, 5-{5-[(4-Chlorophenyl)(cyclopropylmethyl)amino]picolinoyl}-2-(3,4-dichlorophenoxy)benzoic acid]
52 | – | O=C(c1ccc(Oc2ccc(F)cc2)c(C(=O)O)c1)c1ccc(N(CC2CC2)c2ccc(Cl)cc2)cn1 [1:27, 5-{5-[(4-Chlorophenyl)(cyclopropylmethyl)amino]picolinoyl}-2-(4-fluorophenoxy)-benzoic acid]
44 | – | O=C(c1ccc(Oc2ccccc2O)c(C(=O)O)c1)c1ccc(N(CC2CC2)c2ccc(Cl)cc2)cn1 [1:28, 5-{5-[(4-Chlorophenyl)(cyclopropylmethyl)amino]picolinoyl}-2-(2-hydroxyphenoxy)benzoic acid]
282 | – | O=C(c1ccc(Oc2ccccc2)c(C(=O)O)c1)c1ccc(Nc2ccc(Cl)cc2)cn1 [1:29, 5-[5-(4-Chlorophenylamino)picolinoyl]-2-phenoxybenzoic acid]
158 | – | COc1cccc(Oc2ccc(C(=O)c3ccc(N(CC4CC4)c4ccc(Cl)cc4)cn3)cc2C(=O)O)c1 [1:30, 5-{5-[(4-Chlorophenyl)(cyclopropylmethyl)amino]picolinoyl}-2-(3-methoxyphenoxy)benzoic acid]
142 | – | O=C(c1ccc(Oc2ccc3c(c2)OCO3)c(C(=O)O)c1)c1ccc(N(CC2CC2)c2ccc(Cl)cc2)cn1 [1:31, 5-{5-[(4-Chlorophenyl)(cyclopropylmethyl)amino]picolinoyl}-2-(3,4-methylenedioxyphenoxy)benzoic acid]
